Experimental data as given in patent US20020142008A1, “Immunogenic pili presenting foreign peptides, their production and use” (priority 2000, published 2002).
Ends that are not written are not given here.

What was measured:
[1] = system: experimental pyelonephritis; assay: BALB/c murine model of experimental pyelonephritis, F13 peptide conjugate vaccines; format: in vivo; settings: BALB/c mice, serial parenteral administration of vaccine, intravesicular challenge
[2] = system: homologous piliated Escherichia coli challenge strains (renal and/or bladder colonization); assay: Intravesicular BALB/c experimental model of pyelonephritis and cystitis, pilin A synthetic peptide conjugate vaccines; format: in vivo; settings: BALB/c mice, thyroglobulin and BSA conjugates ~200 ug i.m. day 0 and 14 in incomplete Freund's adjuvant; bladder inoculation 10^8 CFU homologous piliated strain; renal/bladder colonization at 48 hours; protection = >90% of cohort no growth and none >500 CFU per 0.1 gram
Description: The intravesicular BALB/c experimental model of pyelonephritis and cystitis, as originally described by O'Hanley, was employed to evaluate the protective capacity of structural pilin synthetic peptide conjugate vaccines to prevent subsequent renal and/or bladder colonization by homologous piliated strains at 48 hours after bacterial bladder inoculation. Cohorts of 20 mice per group were vaccinated via intramuscular administration on two occasions with the experimental thyroglobulin and bovine serum albumin conjugate pilin A vaccines (i.e., day 0 and day 14). Each intramuscular dose of experimental vaccine consisted of ^˜200 ug in 100 ul saline emulsified in 100 ul incomplete Freund's adjuvant. Control vaccines consisted of thyroglobulin and bovine serum albumin emulsified in saline and incomplete Freund's adjuvant. These control vaccines were administered in similar fashion and schedule as the experimental vaccines. Challenge for pilin A vaccinated mice entailed bladder inoculation of 10^8 CFU of an Escherichia coli strain that expressed homologous pili. In contrast, the cohort size for control animals was 5 per challenge strain. The table below summarizes the challenge strategy.
Protection against subsequent renal colonization and bladder colonization by the challenge strain was defined by >90% of the experimental animals in a cohort (i.e., 18 of 20 vaccinated experimental mice) having no bacterial growth from aliquots of homogenized whole right kidney and aliquots of homogenized whole bladders and none of the experimental animals having heavy bacterial growth from the challenge strain in renal or bladder specimens (viz., the absence of ++++ colonization density or >500 CFU of the challenge strain per 0.1 gram of renal or bladder tissue) compared to heavy growth of the challenge strain in both renal and bladder specimens (++++ colonization density or >500 CFU per 0.1 gm of renal or bladder tissue) by the challenge strain in >80% of control animals (i.e. >4 of 5 control mice).

Row | Sequence | protection in experimental pyelonephritis [1] | Homologous Protection [2]
1 | AKFGGMGAKKG (also: conjugated to carrier protein) [F13 structural pilin peptide conjugate vaccine] | protective | –
2 | IPEGQGKVT (also: conjugated to thyroglobulin or BSA) [F12 pilin A synthetic peptide conjugated to thyroglobulin or bovine serum albumin] | – | Yes
3 | IPQGQGKVTFNGTV (also: conjugated to carrier protein) [F11 pilin A synthetic peptide conjugate vaccine] | – | Yes
4 | NFKKAAGGGGAKT (also: conjugated to thyroglobulin or BSA) [F72 pilin A synthetic peptide conjugated to thyroglobulin or bovine serum albumin] | – | Yes
5 | NFKKAATPGGAAKT (also: conjugated to thyroglobulin or BSA) [F9 pilin A synthetic peptide conjugated to thyroglobulin or bovine serum albumin] | – | Yes
6 | NFKQLQGGAAKKG (also: conjugated to thyroglobulin or BSA) [F71 pilin A synthetic peptide conjugated to thyroglobulin or bovine serum albumin] | – | Yes
7 | NGGTVHFKGEVVN (also: conjugated to thyroglobulin or BSA) [F1C structural pilin synthetic peptide conjugated to thyroglobulin or bovine serum albumin] | – | Yes
8 | PQGQGEVA (also: conjugated to thyroglobulin or BSA) [F71 pilin A synthetic peptide conjugated to thyroglobulin or bovine serum albumin] | – | Yes
9 | PQGQGEVT (also: conjugated to thyroglobulin or BSA) [F71 pilin A synthetic peptide conjugated to thyroglobulin or bovine serum albumin] | – | Yes
10 | PQGQGKVT (also: conjugated to carrier protein) [F72 and F13 pilin A synthetic peptide conjugate vaccine] | protective | Yes
11 | TTVNGGTVH (also: conjugated to carrier protein) [F9 pilin A synthetic peptide conjugate vaccine] | – | Yes
12 | TTVTVNGGTVHF (also: conjugated to thyroglobulin or BSA) [F1 structural pilin synthetic peptide conjugated to thyroglobulin or bovine serum albumin] | – | Yes
